Measured values reported in the NIST ThermoML archive (doi:10.1016/j.jct.2007.09.010).

Assays:
[1] = refractive index (other wavelength) (dimensionless); xn = mol fraction of the nth substance listed; conditions: 293.6 K, 101.32 kPa, Liquid, Wavelength=632.8 nm
[2] = refractive index (other wavelength) (dimensionless); conditions: 101.32 kPa, Liquid, Wavelength=632.8 nm, Standard Abbe refractometry

N#Cc1ccccc1 [benzonitrile] + CCCCCCCCCCCC
[1]
Conditions	refractive index
x1 = 0.0994	1.4247
x1 = 0.195	1.4302
x1 = 0.2945	1.436
x1 = 0.3954	1.4434
x1 = 0.4923	1.4507
x1 = 0.5859	1.4608
x1 = 0.6782	1.4711
x1 = 0.768	1.4832
x1 = 0.8871	1.5022

CCCCCCCCCCCC [dodecane]
[2]
Conditions	refractive index
282.19 K	1.4249
284.24 K	1.424
286.06 K	1.4233
288.08 K	1.4225
289.91 K	1.4217
291.91 K	1.4207
293.94 K	1.4199

N#Cc1ccccc1 [benzonitrile]
[2]
Conditions	refractive index
283.93 K	1.5294
285.77 K	1.5285
287.73 K	1.5276
289.74 K	1.5266
291.66 K	1.5256
293.65 K	1.5247
